In experiment [1] the test system is cartilage. Nature of the experiment: Cartilage degradation in the rat (cartilage-sponge implant). The note with it: average daily dose 50 mg/kg, intraperitoneal osmotic minipump; for % Inhibition of Cartilage Collagen Loss: * = p<0.05 vs vehicle-treated rats. The experiment is classed as in vivo, rat (Lewis strain). The procedure:
Twenty mg slices of cartilage are obtained from the knee of freshly slaughtered cattle. Discs of cellulose sponge, 6 mm in diameter, are cut and a 2 mm hole put in the center of the sponge. 100 µl of a sterile suspension containing 1 mg of heat-killed Mycobacterium tuberculosis is applied to the sponge. After air-drying overnight, the sponges are autoclaved and a cartilage slice is placed in the hole cut in the sponge disc. Under sterile conditions, the cartilage-sponge disc is placed subcutaneously in the back of an anesthetized rat (Lewis strain, 200 to 250 g). The incision is closed with staples and the rat allowed to recover from anesthesia. Approximately 5 days after sponge implantation, osmotic minipumps (Alza Corp., Palo Alto, CA), containing either investigational compound or vehicle were implanted intraperitoneally in the anesthetized rat under sterile conditions After 19 days, the rats are euthanized by asphyxiation with CO2 and the granulomas containing the implanted sponge excised from the surrounding tissue.
The weight of the piece of cartilage recovered from the sponge was recorded and the collagen content of the cartilage was determined. The mean of the cartilage weights and collagen content was determined for the vehicle and drug-treated groups. The inhibition of cartilage weight and collagen content loss produced by the compounds compared with vehicle-treated rats was determined. Statistical significance (p< 0.05) of vehicle-treated animals versus drug-treated animals was determined by analysis of variance.
Reference: Bishop J., Greenham AK., Lewis EJ. A novel in vivo model for the study of cartilage degradation. J. Pharmacol. Toxicol. Methods, 30:19-25, 1993.

For experiment [2], the target named is MMP-9 (Homo sapiens, UniProt P14780). Description: MMP-9 inhibition (thiopeptide or fluorescent peptide substrate assay). The experiment is classed as biochemical. The note with it: read-out: MMP-9 IC50.
MMP-9, sequence (P14780 94-707): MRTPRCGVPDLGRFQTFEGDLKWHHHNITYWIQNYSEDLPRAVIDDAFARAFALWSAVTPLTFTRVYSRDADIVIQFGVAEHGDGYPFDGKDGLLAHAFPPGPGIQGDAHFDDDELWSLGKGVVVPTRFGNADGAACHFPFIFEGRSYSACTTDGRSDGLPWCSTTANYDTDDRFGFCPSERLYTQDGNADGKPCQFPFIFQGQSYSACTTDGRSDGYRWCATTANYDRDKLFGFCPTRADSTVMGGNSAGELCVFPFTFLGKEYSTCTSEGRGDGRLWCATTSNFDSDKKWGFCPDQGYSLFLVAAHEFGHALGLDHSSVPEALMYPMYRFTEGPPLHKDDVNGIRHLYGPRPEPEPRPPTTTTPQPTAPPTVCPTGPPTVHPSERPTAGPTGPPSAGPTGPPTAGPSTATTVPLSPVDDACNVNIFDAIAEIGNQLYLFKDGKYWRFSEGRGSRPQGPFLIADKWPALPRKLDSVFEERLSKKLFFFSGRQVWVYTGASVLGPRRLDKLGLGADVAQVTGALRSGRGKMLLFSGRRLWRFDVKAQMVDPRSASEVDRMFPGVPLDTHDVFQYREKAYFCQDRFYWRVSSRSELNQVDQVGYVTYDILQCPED
Experiment [3] concerns the target T1, MMP-1 (Homo sapiens, UniProt P03956).
T1 sequence (P03956 100-469): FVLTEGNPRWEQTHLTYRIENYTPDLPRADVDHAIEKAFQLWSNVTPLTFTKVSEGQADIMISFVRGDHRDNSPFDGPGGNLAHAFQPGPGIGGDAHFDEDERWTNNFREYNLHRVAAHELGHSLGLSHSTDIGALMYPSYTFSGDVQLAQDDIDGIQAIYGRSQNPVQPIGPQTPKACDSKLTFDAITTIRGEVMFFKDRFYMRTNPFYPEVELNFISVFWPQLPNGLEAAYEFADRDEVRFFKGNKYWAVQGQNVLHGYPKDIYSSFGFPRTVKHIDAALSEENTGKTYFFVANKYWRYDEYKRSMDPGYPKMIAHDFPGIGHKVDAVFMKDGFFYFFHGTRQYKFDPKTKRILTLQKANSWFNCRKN
Nature of the experiment: MMP-1 inhibition (thiopeptide or fluorescent peptide substrate assay). Type of experiment: biochemical. The note with it: read-out: MMP-1 IC50.

Experiment [4] has as its target TACE (Homo sapiens, UniProt P78536). Nature of the experiment: TACE inhibition (fluorescent peptidyl substrate). Type of experiment: biochemical.

TACE, sequence (P78536 215-824): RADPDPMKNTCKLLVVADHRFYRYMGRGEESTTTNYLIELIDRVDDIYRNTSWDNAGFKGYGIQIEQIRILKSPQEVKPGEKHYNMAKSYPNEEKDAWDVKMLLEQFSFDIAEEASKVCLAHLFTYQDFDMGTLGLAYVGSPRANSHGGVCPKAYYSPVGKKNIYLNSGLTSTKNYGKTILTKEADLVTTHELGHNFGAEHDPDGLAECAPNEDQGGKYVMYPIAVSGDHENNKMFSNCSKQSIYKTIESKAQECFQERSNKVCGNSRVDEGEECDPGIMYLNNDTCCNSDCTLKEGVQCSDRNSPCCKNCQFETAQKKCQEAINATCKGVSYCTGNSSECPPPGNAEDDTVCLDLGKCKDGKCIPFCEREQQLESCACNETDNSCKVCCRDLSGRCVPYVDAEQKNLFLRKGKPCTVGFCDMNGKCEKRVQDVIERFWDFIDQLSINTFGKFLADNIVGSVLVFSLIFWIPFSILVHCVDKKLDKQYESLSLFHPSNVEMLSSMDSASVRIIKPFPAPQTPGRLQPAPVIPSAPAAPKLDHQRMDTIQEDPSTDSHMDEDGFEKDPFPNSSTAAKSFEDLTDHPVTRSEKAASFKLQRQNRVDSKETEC

With `COc1ccc(S(=O)(=O)N(Cc2cccnc2)c2c(C)cccc2C(=O)NO)cc1` [Example 83, N-Hydroxy-2-[(4-methoxy-benzenesulfonyl)-pyridin-3-ylmethyl-amino]-3-methyl-benzamide], in experiment [1], the “% Inhibition of Cartilage Weight Loss” value was 44.6% and the “% Inhibition of Cartilage Collagen Loss” value is 51.2* %.

What is called IC50 is the concentration that inhibits the measured activity by half. As to `COc1ccc(S(=O)(=O)N(C)c2c(CN3CCN(C)CC3)cc(Br)cc2C(=O)NO)cc1` [Example 313, 5-Bromo-N-hydroxy-2-[(4-methoxy-benzenesulfonyl)-methyl-amino]-3-(4-methyl-piperazin-1-ylmethyl)-benzamide], the IC50 was 0.0014 µM in experiment [2], 0.18 µM in experiment [3] and 0.026 µM in experiment [4]. Moreover, in experiment [1], the “% Inhibition of Cartilage Weight Loss” value was 45.5%. Further, the “% Inhibition of Cartilage Collagen Loss” value in experiment [1] is 28.0* %.
